Results as given in patent US6043365A, “Preparation of 2-amino-7-(1-substituted-2-hydroxyethyl)-3, 5-dihydropyrrolo[3,2-d]pyrimidin-4-ones” (Novartis AG, priority 1998, dated 2000).

What was measured:
[1] = tested on: collagen II induced arthritis; experiment: Antiarthritic activity, collagen II induced arthritis in mice model; format: in vivo, DBA/1LacJ female mice; conditions: 20 mg/Kg/day; orally once daily, day 1 through day 42
Description: The antiarthritic activity can be determined in the collagen II induced arthritis in mice model. DBA/1LacJ female mice, 6-8 weeks old, are immunized with 100 μg of chicken type II collagen emulsified in Freund's complete adjuvant (FCA) by injecting at the base of the tail on day 0. On day 17 after collagen injection, the immune response to type II collagen is boosted with a subcutaneous injection of 200 μg LPS solubilized in PBS. Paws are examined on days 17, 21, 24, 28, 31, 35, and 42 and scored for the symptoms of arthritis based on criteria such as inflammation, swelling and ankylosis. Compounds are suspended in corn starch vehicle and administered orally to mice once daily beginning on day 1 and continuing through day 42.

transplant rejection = experiment: Protection against transplant rejection, mouse tail skin transplantation procedure; format: in vivo, mouse (C57BL/10-SnJ and B10.BR/SgSnJ)
Description: Protection against transplant rejection can be determined in a mouse tail skin transplantation procedure.
Mice are anesthetized with tribromoethanol i.p. injection according to the method of Papaioannou and Fox (Lab. Animal Science 1993;43:189-92). The mouse tail skin transplant rejection model is a modification of that described by Baily and Usama, (Transpl. Bull. 1960;7:424-5). Four skin grafts per mouse are exchanged between strains [C57BL/10-SnJ (H-2K^b) and B10.BR/SgSnJ (H-2K^k)] at surgery (d0). Fitted skin grafts are made with a scalpel, and tail graft sites are protected with tubing for 2 days following surgery. Mouse tails are evaluated at day 7 for missing grafts. Only those graft sites that have patent grafts at day 7 are evaluated at later scoring intervals. Grafts are scored numerically for signs of rejection at ~weekly scoring intervals starting day 14. Dose-group mean graft scores are compared statistically.

[2] = biological target: T1, purine nucleoside phosphorylase (PNP) (Bos taurus, UniProt P55859); experiment: PNP inhibition in vitro, enzymic determination of inorganic phosphate (PNP/xanthine oxidase), calf spleen PNP; format: biochemical; conditions: 1 mM phosphate concentration; calf spleen PNP; substrate inosine
T1 construct: Calf spleen PNP is used as the enzyme source; from tissue; host or cells: calf spleen
T1 sequence (P55859 1-289): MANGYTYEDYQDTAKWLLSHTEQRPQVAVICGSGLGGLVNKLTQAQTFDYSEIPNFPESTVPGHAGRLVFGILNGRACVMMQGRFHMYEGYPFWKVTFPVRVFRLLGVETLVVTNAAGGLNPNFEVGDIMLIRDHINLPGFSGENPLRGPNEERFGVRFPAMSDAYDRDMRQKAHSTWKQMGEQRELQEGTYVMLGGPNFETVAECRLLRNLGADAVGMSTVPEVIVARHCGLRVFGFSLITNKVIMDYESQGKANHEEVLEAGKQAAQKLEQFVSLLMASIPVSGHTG
Description: PNP inhibition can be measured by measuring the formation of [^14- C]-[…] [Biomedicine, 33, 39 (1980)] using calf spleen as the enzyme source and 1 or 50 mM phosphate. Results are expressed as IC50 values, corresponding to the concentration of compound required to achieve a 50% reduction of the formation of hypoxanthine.
PNP inhibition can also be determined in vitro as follows: An enzymic method for the determination of inorganic phosphate (see Chem. Pharm. Bull., 1981, 29:1451-5), based on the principle of forming hydrogen peroxide with purine nucleoside phosphorylase (PNP) and xanthine oxidase, is used to calorimetrically measure the degree of linkage between enzyme and substrate (inosine). Calf spleen PNP is used as the enzyme source. The IC50 values for the compounds studied are determined graphically at two phosphate concentrations (1 and 50 mM) from a plot of percent inhibition versus compound concentration.

CCRF-CEM cells = experiment: CCRF-CEM cell assay: potentiation of the cell growth inhibitory activity (cytotoxicity) of 2'-deoxyguanosine (d-Guo); format: cell-based; conditions: Homo sapiens, d-Guo 10 μM, 72 hours
Description: The selective suppression of spontaneous T-cell proliferation in vitro is measured by the potentiation of the cell growth inhibitory activity (cytotoxicity) of 2'-deoxyguanosine (d-Guo) by the compounds of the invention, determined as follows: Human CCRF-CEM cells are grown in RPMI-1640 medium. To suspension cultures of these cells, d-Guo at a fixed concentration (10 μM) and the candidate PNP inhibitor at varied concentrations are added and the number of cells are determined in a Coulter counter 24, 48, and 72 hours thereafter. […] This method is similar to that previously used to determine the effectiveness of PNP inhibitors on potentiation of the toxicity of d-Guo. [See D. A. Shewach et al., Cancer Res., 46, 519 (1986); J. C. Sircar et al., Agents and Actions, 21, 253 (1987), also Methods in Pharmacology, D. M. Paten, ed. 1985, pp. 147-162].

[3] = tested on: purine nucleoside phosphorylase (PNP); experiment: PNP inhibition in vivo: plasma inosine level in mice after oral dose; conditions: at a dose of e.g. 10 mg/Kg p.o.
Description: Briefly, mice are treated orally with the PNP inhibitor suspended in fortified cornstarch (3% cornstarch suspension in water with 0.33% Tween 80 and 5% PEG 400) at a final volume of 10 ml/kg. One or more hours after a single oral dose of compound, the mice are bled by cardiac puncture into 25 U/ml heparin to obtain plasma. The samples are analyzed for both inosine and drug levels by a gradient reverse-phase high performance liquid chromatography (HPLC) method (see Anal Chem, 1977, 49:2237-41). Quantitation is performed using an internal standard method with 2',3'-dideoxyinosine (DDI) as the internal standard.

Nc1nc2c([C@@H](CO)c3ccccc3F)c[nH]c2c(=O)[nH]1 [Example 1, 2-amino-7-[1-(2-fluorophenyl)-2(R)-hydroxyethyl]-3,5-dihydro-4H-pyrrolo[3,2-d]pyrimidin-4-one]
antiarthritic activity [1]: effective | protection against transplant rejection (transplant rejection; 50 mg/Kg/day, mouse): effective in protecting against transplant rejection | transplant rejection model, combination with cyclosporin (transplant rejection; combination of compound and cyclosporin vs either alone): superior to either cyclosporin or the PNP inhibitor alone | IC50 [2]: ~10 nM | IC50 (CCRF-CEM cells): ~75 nM | plasma level of inosine [3]: significant increase in the plasma level of inosine

Nc1nc2c([C@@H](CO)c3ccccc3)c[nH]c2c(=O)[nH]1 [Example 3f, 2-Amino-7-(2(S)-hydroxy-1-phenylethyl)-3,5-dihydro-4H-pyrrolo[3,2-d]-pyrimidin-4-one]
IC50 [2]: ~10 nM | IC50 (CCRF-CEM cells): ~100 nM | plasma level of inosine [3]: significant increase in the plasma level of inosine
